Experimental data as given in patent US10813859B2, “Wrinkle ameliorating agent” (POLA CHEMICAL INDUSTRIES, INC., priority 2016, dated 2020).

Key:
[1] = Moisture absorbing property confirmation test; assay type: physicochemical; details: humidity 75%, 25° C.
Experimental: Compound 1 was precisely weighed in a 1 g weighing bottle, left in a desiccator with a humidity at 75% (a saturated aqueous solution of sodium chloride) in an open state, and stored at 25° C. The weight was measured from the start of the storage until 30 days thereafter, and the coefficient of moisture absorption was determined by the following formula. Coefficient of moisture absorption (%)=(M3−M2)/(M2−M1)×100
M1: The mass of the weighing bottle (g)
M2: The mass of the weighing bottle containing a sample at the start of the storage (g)
M3: The mass of the weighing bottle containing the sample after the storage (g)

[2] = system: hyaluronan synthetase gene (HAS1) in normal human epidermal keratinocyte; assay: Test for confirming expression-increasing effect of epidermal hyaluronan synthetase gene; assay type: cell-based; details: 0.2% by mass in medium, 24 hours; qPCR, ACTB internal standard; FIG. 5
Experimental: Normal human epidermal keratinocyte (produced by Kurabo Industries Ltd.) was inoculated in a 24-well plate at […] cells/well, and incubated overnight at 37° C. in a 5% CO2 environment. The culture medium was exchanged with a medium containing 0.2% by mass of Compound 1, or glycerol (produced by Wako Pure Chemical Industries, Ltd.) and cultured at 37° C. in a 5% CO2 environment for 24 hours.
Using a mRNA recovery kit (FastLane Cell SYBR Green Kit, produced by Qiagen N.V.), mRNA was extracted by a conventional method. Using a qPCR kit (One Step SYBR PrimeScript RT-PCR Kit II, produced by Takara Bio Inc.), the expression level of the hyaluronan synthetase gene (HAS 1) was analyzed by qPCR using ACTB as an internal standard (7500 Real-Time PCR System, produced by Applied Biosystems). Data analysis was carried out by the ΔΔCt method.
The respective relative values were calculated with respect to the expression level of the gene in a medium not containing Compound 1 and glycerol (non-addition group) as 1.

Structure (SMILES)	moisture absorbing property ([1]; up to 30 days)	Coefficient of moisture absorption (mean value, n = 3) ([1]; storage time 1 day)	Coefficient of moisture absorption (mean value, n = 3) ([1]; storage time 3 days)	Coefficient of moisture absorption (mean value, n = 3) ([1]; storage time 7 days)	Coefficient of moisture absorption (mean value, n = 3) ([1]; storage time 14 days)	Coefficient of moisture absorption (mean value, n = 3) ([1]; storage time 30 days)	expression level of the hyaluronan synthetase gene (HAS 1) compared to the non-addition group [2]
OCC(O)COC1CCCCC1 (centres unmarked) [Compound 1, 3-cyclohexyloxy-1,2-propanediol]	confirmed	13.2%	19.0%	20.5%	21.0%	21.2%	significantly larger
OCC(O)CO [glycerol, reference compound]	–	–	–	–	–	–	no significant difference
